How the values were obtained:
hyperlipidemia rats [1] = test: Further study on the effect of drugs on lowering blood fat and body weight in high fat diet rats, lower doses (Examples 6); format: in vivo, Wistar rats
Experimental: Take ZL004, ZL051 and ZL006 (0.5% CMC-Na solution, 7.5 mg/ml, 15 mg/ml, or 30 mg/ml), take atorvastatin as positive control drug (0.5% CMC-Na solution, 0.5 mg/ml), for the following experiment.
130 Wistar rats (male weight; 150 g; feeding environment: SPF grade animal room, free feeding, 12 h light/12 h dark) after adaptive breeding for one week, were randomly divided into normal control group (10 rats) and high-fat diet group (120 rats), and each rat was then numbered. The normal control group were fed with normal diet, high fat diet group were fed with high fat diet (78.8% basal diet (purchased from Beijing, Australia to feed Co. Ltd.)+1% cholesterol, +10% egg yolk powder, +10% lard, +0.2% sodium cholate), After 30 days, after determination, the hyperlipemia rats of high fat diet group were randomly divided into 10 groups (high fat model group, atorvastatin group (atorvastatin 5 mg/kg daily administration), ZL004 high dose group (daily administration of ZL004 300 mg/kg), ZL004 middle dose group (daily administration of ZL004 150 mg/kg), ZL004 low dose group (daily administration of ZL004 75 mg/kg), ZL051 high dose group (daily administration of ZL051 300 mg/kg), ZL051 middle dose group (daily administration of ZL051 150 mg/kg), ZL051 low dose group (daily administration of ZL051 75 mg/kg), ZL006 high dose group (daily administration of ZL006 300 mg/kg), ZL006 middle dose group (daily administration of ZL006 150 mg/kg), ZL006 low dose group (daily administration of ZL006 75 mg/kg), 10 rats in each group. The normal control group and high fat model group daily orally administered 0.5% CMC-Na solution, drug admonition group were orally administered with corresponding drugs administered continuously for 30 days to determine the levels of total cholesterol (TC), triacylglycerol (TG), high density lipoprotein cholesterol (HDL-C), low density lipoprotein cholesterol (LDL-C) and weight. No safety problems found in the experiment.

hyperlipidemia rats [2] = test: Effect of drugs on reducing blood lipid and body weight in high fat diet rats (Examples 5); format: in vivo, Wistar rats
Experimental: Take the medicine ZL004, ZL005 and ZL006, 0.5% CMC-Na (carboxymethyl cellulose sodium) solution (25 mg/ml or 50 mg/ml); take atorvastatin as positive control drug (0.5% CMC-Na solution, 0.5 mg/ml), for the following experiment.
120 Wistar rats (male weight; 150 g; feeding environment: SPF grade animal room, free feeding, 12 h light/12 h dark) after adaptive breeding for one week, were randomly divided into normal control group (10 rats) and high-fat diet group (110 rats), and each rat was then numbered. The normal control group were fed with normal diet, high fat diet group were fed with high fat diet (78.8% basal diet (purchased from Beijing, Australia to feed Co. Ltd.) +1% cholesterol, +10% egg yolk powder, +10% lard, +0.2% sodium cholate), 30 days later, after determination, the hyperlipemia rats of high fat diet group were randomly divided into 10 groups (high fat model group, atorvastatin group (atorvastatin 5 mg/kg daily administration), ZL004 high dose group (daily administration of ZL004 500 mg/kg), ZL004 low dose group (daily administration of ZL004 […]), ZL005 high dose group (daily administration of ZL005 500 mg/kg), ZL005 low dose group (daily administration of ZL005 […]), ZL006 high dose group (daily administration of ZL006 500 mg/kg), ZL006 low dose group (daily administration of ZL006 […]), 10 rats in each group. The normal control group and high fat model group daily orally administered 0.5% CMC-Na solution, drug admonition group were orally administered with corresponding drugs administered continuously for 30 days to determine the levels of total cholesterol (TC), triacylglycerol (TG), high density lipoprotein cholesterol (HDL-C), low density lipoprotein cholesterol (LDL-C) and weight. No safety problems were found in the experiment.

[3] = high fat diet hyperlipidemia rats, oral daily for 30 days, 5 mg/kg, model group = 100%
[4] = high fat diet hyperlipidemia rats, oral daily for 30 days, 5 mg/kg, x ± s, n = 10
[5] = serum HDL cholesterol, high fat rats, oral daily 30 days, 5 mg/kg, model group = 100%, x ± s, n = 10
[6] = serum LDL cholesterol, high fat rats, oral daily 30 days, 5 mg/kg, model group = 100%, x ± s, n = 10
[7] = serum total cholesterol, high fat rats, oral daily 30 days, 5 mg/kg, model group = 100%, x ± s, n = 10
[8] = serum triacylglycerol, high fat rats, oral daily 30 days, 5 mg/kg, model group = 100%, x ± s, n = 10
[9] = each dose (250 and 500 mg/kg), atorvastatin 5 mg/kg, oral daily 30 days, versus model group

In the case of CC(C)c1c(C(=O)Nc2ccccc2)c(-c2ccccc2)c(-c2ccc(F)cc2)n1CC[C@@H](O)C[C@@H](O)CC(=O)O [Atorvastatin, atorvastatin], the “effect on the body weight of hyperlipidemia rats (in words)” value (hyperlipidemia rats [1]; each dose (75, 150, 300 mg/kg), atorvastatin 5 mg/kg, oral daily 30 days, versus high fat model group) is reported as “reduced the body weight, close to or even lower than the normal control group”, the “effect on HDL-C (in words)” value (hyperlipidemia rats [1]; each dose (75, 150, 300 mg/kg), atorvastatin 5 mg/kg, oral daily 30 days, versus model group) is reported as “significantly increase” and the “body weight % (/high fat model group)” value (hyperlipidemia rats [1]; [3]) is reported as 90.37 ± 12.13%. The “body weight” value (hyperlipidemia rats [1]; [4]) was 465.7 ± 62.5 g, the “effect on rat serum TC, TG, LDL-C (in words)” value (hyperlipidemia rats [1]; middle/high doses (150, 300 mg/kg), atorvastatin 5 mg/kg, oral daily 30 days, versus model group) was “significantly reduce” and the “HDL-C % (/model group)” value (hyperlipidemia rats [1]; [5]) was 176.99 ± 37.57 %. The “LDL-C % (/model group)” value (hyperlipidemia rats [1]; [6]) was 67.93 ± 29.54 %, the “TC % (/model group)” value (hyperlipidemia rats [1]; [7]) was 77.03 ± 23.18 % and the “TG % (/model group)” value (hyperlipidemia rats [1]; [8]) was 69.99 ± 17.21 %. For the same compound, the “effect on the body weight of hyperlipidemia rats (in words)” value (hyperlipidemia rats [2]; each dose (250 and 500 mg/kg), atorvastatin 5 mg/kg, oral daily 30 days, versus high fat model group) was “reduced the body weight, close to or even lower than the normal control group”, the “effect on HDL-C (in words)” value (hyperlipidemia rats [2]; [9]) was “significantly increase” and the “effect on rat serum TC, TG, LDL-C (in words)” value (hyperlipidemia rats [2]; [9]) was “significantly reduce”. The “body weight % (/high fat model group)” value (hyperlipidemia rats [2]; [3]) was 90.77 ± 9.22%, the “body weight” value (hyperlipidemia rats [2]; [4]) was 520.1 ± 52.8 g and the “HDL-C % (/model group)” value (hyperlipidemia rats [2]; [5]) was 178.57 ± 57.92 %. The “LDL-C % (/model group)” value (hyperlipidemia rats [2]; [6]) was 33.13 ± 11.62 %, the “TC % (/model group)” value (hyperlipidemia rats [2]; [7]) was 81.77 ± 14.65 % and the “TG % (/model group)” value (hyperlipidemia rats [2]; [8]) was 70.50 ± 23.19 %.
